Test results from US8883827B2, “Azole derivatives as WTN pathway inhibitors” (Oslo University Hospital HF, priority 2009, dated 2014).

Assays:
Format in all cases: cell-based
[1] = tested on: control cell lines; assay: MTS cell proliferation assay, Table 6, mean; settings: HeLa, HCT116, LS174T; 10 μM, 72 h
From the text: (§1) Control cell lines used were HeLa cells (cell growth not controlled by canonical Wnt signalling) and colorectal cancer cell lines LS174T and HCT116 (with mutant β-catenin N-terminal phosphorylation sites). Target cell lines used were colorectal cancer cell lines WiDr, LoVo, HCT-8, HCT-15, COL0205, DLD-1, HT-29, SW620, SW1463, SW480 which all carry a mutant APC gene. Target cells, along with L Wnt3a-expressing cells and HEK293 cells, were purchased from ATCC (American Type Culture Collection) and maintained according to the supplier's recommendations. Wnt3a containing conditioned media (Wnt3a-CM) from L Wnt3a expressing cells was harvested as described by ATCC.
(§2) For the experiment giving the results shown in Table 6, cells were exposed to cell culture medium (including 10% FBS) containing 10 μM of the compound to be tested 24 hours after seeding (3000 cells on 96-well plates). Medium was changed daily. After 72 hours, an MTS assay (CellTiter 96® AQueous Non-Radioactive Cell Proliferation Assay—Promega) was carried out according to the standard procedure. 0.1% DMSO was used as a control.
(§3) The quantity of reduced MTS product (as measured by the absorbance at 490 nm) is directly proportional to the number of living cells in the culture and thus allows a direct comparison of cell proliferation in each case. DMSO was used as a control. The following formula was used to determine single well relative A490 sample values: ((Sample A490−Average A490t0)*100)/(Average A490t720.1% DMSO control−Average A490t0)
(§4) Data shown are A490-percentage values relative to the DMSO control, calculated as described above, and represent averages from 2 to 4 independent experiments (except SW1463 cells treated with IWR-1 which reports only a single experiment). Compounds IWR-1 and XAV939 are known Wnt pathway inhibitors.

[2] = tested on: APC mutant cell lines; assay: MTS cell proliferation assay, Table 6, mean; settings: 10 μM, 72 h; for Ratio of means: APC mutant cell lines versus control cell lines; for Mean proliferation (APC mutant cell lines): ten APC mutant colorectal lines
From the text: as §1, §2, §3, §4

[3] = tested on: SW620; assay: MTS cell proliferation assay, Table 6; settings: 10 μM, 72 h, relative to DMSO control
From the text: as §1, §2, §3, §4

[4] = tested on: HCT116; assay: MTS cell proliferation assay, Table 6; settings: HCT116 (control); 10 μM, 72 h; relative to DMSO control
From the text: as §1, §2, §3, §4

[5] = tested on: LS174T; assay: MTS cell proliferation assay, Table 6; settings: LS174T (control); 10 μM, 72 h; relative to DMSO control
From the text: as §1, §2, §3, §4

[6] = tested on: SW1463; assay: MTS cell proliferation assay, Table 6; settings: 10 μM, 72 h, relative to DMSO control
From the text: as §1, §2, §3, §4

[7] = tested on: SW480; assay: MTS cell proliferation assay, Table 6; settings: 10 μM, 72 h, relative to DMSO control
From the text: as §1, §2, §3, §4

[8] = tested on: WiDr; assay: MTS cell proliferation assay, Table 6; settings: 10 μM, 72 h, relative to DMSO control
From the text: as §1, §2, §3, §4

[9] = tested on: HeLa cells; assay: MTS cell proliferation assay, Table 6; settings: HeLa (control); 10 μM, 72 h; relative to DMSO control
From the text: as §1, §2, §3, §4

[10] = tested on: LoVo; assay: MTS cell proliferation assay, Table 6; settings: 10 μM, 72 h, relative to DMSO control
From the text: as §1, §2, §3, §4

[11] = tested on: DLD-1; assay: MTS cell proliferation assay, Table 6; settings: 10 μM, 72 h, relative to DMSO control
From the text: as §1, §2, §3, §4

[12] = tested on: HT-29; assay: MTS cell proliferation assay, Table 6; settings: 10 μM, 72 h, relative to DMSO control
From the text: as §1, §2, §3, §4

[13] = tested on: HCT-15; assay: MTS cell proliferation assay, Table 6; settings: 10 μM, 72 h, relative to DMSO control
From the text: as §1, §2, §3, §4

[14] = tested on: COLO205; assay: MTS cell proliferation assay, Table 6; settings: 10 μM, 72 h, relative to DMSO control
From the text: as §1, §2, §3, §4

[15] = tested on: HCT-8; assay: MTS cell proliferation assay, Table 6; settings: 10 μM, 72 h, relative to DMSO control
From the text: as §1, §2, §3, §4

[16] = tested on: canonical Wnt signaling; assay: IC50 in STF/REN HEK293 cells, 50% Wnt3a-CM; settings: Homo sapiens; STF/REN HEK293, 50% Wnt3a-CM, 24 h
Method: IC50 values were calculated using STF/REN HEK293 cells prepared essentially according to Example 22. Briefly, HEK293 cells (80,000 cells per well) were seeded in 48-well plates coated with poly-L lysine. 24 hours after seeding, the cells were incubated for an additional 24 hours with various compound concentrations in 50% Wnt3a-CM. After compound exposure, the cells were lysed and the firefly luciferase and Renilla activities were measured on a 20/20n Luminometer (Turner BioSystems) as described in the Dual-Glo™ Luciferase Assay System Technical Manual (Promega).
XLfit (idbs) was used to determine the IC50 and GI50 values in inhibition experiments. The data were fit to the following formulae:
IC50: Langmuir Binding Isotherm: fit=((A+(B*x))+(((C−B)*(1−exp((−1*D)*x)))/D)) res=(y−fit)

[17] = tested on: canonical Wnt signaling; assay: ST-Luc (SuperTOPFlash) Luciferase assay in HEK293 cells, 30% Wnt3a-CM; settings: Homo sapiens, HEK293; 10 μM compound, 30% Wnt3a-CM, 24 h; relative to DMSO control
How it was run: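 HEK293 cells were transiently co-transfected with SuperTOPFlash firefly luciferase and pRL-TK Renilla reporters, then treated 24 h with 10 μM compound in 30% Wnt3a-conditioned medium. Dual luciferase activity was read, and percent activity was expressed relative to DMSO control.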

[18] = tested on: SW480 colon carcinoma cells; assay: MTS cell proliferation assay, Table 5; settings: Homo sapiens; SW480, 10 μM, 72 h; relative to DMSO control; read-out: Cell proliferation (%) for test compounds
Method: For the experiment giving the results shown in Table 5, cells (3000 per well) were seeded on 96 well plates (eight replicates per treatment). After 24 hours, and daily thereafter, cell culture medium (including 10% FBS) was mixed with 10 μM compounds or with 0.1% DMSO vehicle and then added to the wells. Sixteen wells of seeded control cells, defining incubation time zero (t0=24 hour after cell seeding), were incubated with 20 μl substrate in 100 μl phenol free D-MEM (Invitrogen) for 2 hours, as described in the CellTiter 96® AQueous Non-Radioactive Cell Proliferation Assay protocol (Promega). The A490 was recorded. The treatment samples were likewise measured after 72 hours.
as §3
The proliferation of SW480 cells (in percent) is the A492 value relative to that of the DMSO control.

Row | SMILES | Mean proliferation (control cell lines) [1] [%] | Ratio of means [2] | Mean proliferation (APC mutant cell lines) [2] [%] | Cell proliferation (%) [3] [%] | Cell proliferation (%) [4] [%] | Cell proliferation (%) [5] [%] | Cell proliferation (%) [6] [%] | Cell proliferation (%) [7] [%] | Cell proliferation (%) [8] [%] | Cell proliferation (%) [9] [%] | Cell proliferation (%) [10] [%] | Cell proliferation (%) [11] [%] | Cell proliferation (%) [12] [%] | Cell proliferation (%) [13] [%] | Cell proliferation (%) [14] [%] | Cell proliferation (%) [15] [%] | IC50 [16] [nM] | activity at 10 µM [17] [%] | activity at 10 µM [18] [%]
1 | O=C(Nc1cccc2cccnc12)c1ccc(N2C(=O)[C@@H]3[C@H](C2=O)[C@@H]2C=C[C@H]3C2)cc1 [IWR-1, reference compound] | 74 | 0.83 | 62 | 48 | 83 | 63 | 57 | 62 | 61 | 77 | 73 | 97 | 33 | 64 | 55 | 70 | – | – | –
2 | Oc1nc(-c2ccc(C(F)(F)F)cc2)nc2c1CSCC2 [XAV939, reference compound] | 99 | 1.01 | 101 | 102 | 109 | 97 | 64 | 103 | 94 | 92 | 129 | 102 | 100 | 90 | 116 | 105 | < 100 | 7 | –
3 | Cc1ccc(-c2nnc(CSc3nnc(-c4ccncc4)n3-c3ccccc3Cl)o2)cc1 [compound 60] | 95 | 0.58 | 55 | 50 | 87 | 105 | 12 | 59 | 70 | 92 | 67 | 78 | 58 | 54 | 53 | 51 | < 100 | 17.3 | 49
